Measured values from ChEMBL document CHEMBL5291721, “A preclinical secondary pharmacology resource illuminates target-adverse drug reaction associations of marketed drugs” (Nat Commun, 2023).

What was measured:
[1] = molecular target: T1, Alpha-2C adrenergic receptor (Homo sapiens, UniProt P18825); format: functional
T1 sequence (P18825 whole entry): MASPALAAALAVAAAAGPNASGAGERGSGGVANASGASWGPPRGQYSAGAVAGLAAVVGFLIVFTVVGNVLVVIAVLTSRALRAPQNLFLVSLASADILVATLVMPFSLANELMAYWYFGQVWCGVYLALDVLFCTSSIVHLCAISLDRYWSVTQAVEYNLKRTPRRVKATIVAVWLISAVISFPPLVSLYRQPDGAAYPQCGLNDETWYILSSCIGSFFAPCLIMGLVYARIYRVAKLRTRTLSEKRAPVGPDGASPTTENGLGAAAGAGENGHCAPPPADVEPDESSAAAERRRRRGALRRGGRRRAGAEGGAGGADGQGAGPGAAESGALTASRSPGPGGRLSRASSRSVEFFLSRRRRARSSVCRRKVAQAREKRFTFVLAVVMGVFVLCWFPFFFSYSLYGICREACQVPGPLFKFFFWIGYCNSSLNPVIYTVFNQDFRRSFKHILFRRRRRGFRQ

Motilin receptor = Motilin receptor (Homo sapiens, UniProt O43193)
Motilin receptor, sequence (O43193 whole entry): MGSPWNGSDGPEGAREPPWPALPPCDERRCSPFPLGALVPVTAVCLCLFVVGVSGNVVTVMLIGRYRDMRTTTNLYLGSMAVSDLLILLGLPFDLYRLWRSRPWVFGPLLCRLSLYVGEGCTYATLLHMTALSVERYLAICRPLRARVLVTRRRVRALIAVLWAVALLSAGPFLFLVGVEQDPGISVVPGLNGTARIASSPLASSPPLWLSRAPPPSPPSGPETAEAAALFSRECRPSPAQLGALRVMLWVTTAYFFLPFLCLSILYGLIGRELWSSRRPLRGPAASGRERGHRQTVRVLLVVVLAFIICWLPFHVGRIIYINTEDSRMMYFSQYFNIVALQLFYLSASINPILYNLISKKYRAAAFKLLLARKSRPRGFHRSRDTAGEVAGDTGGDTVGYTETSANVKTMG

[2] = molecular target: Beta-1 adrenergic receptor (Homo sapiens, UniProt P08588); format: functional
Beta-1 adrenergic receptor, sequence (P08588 whole entry): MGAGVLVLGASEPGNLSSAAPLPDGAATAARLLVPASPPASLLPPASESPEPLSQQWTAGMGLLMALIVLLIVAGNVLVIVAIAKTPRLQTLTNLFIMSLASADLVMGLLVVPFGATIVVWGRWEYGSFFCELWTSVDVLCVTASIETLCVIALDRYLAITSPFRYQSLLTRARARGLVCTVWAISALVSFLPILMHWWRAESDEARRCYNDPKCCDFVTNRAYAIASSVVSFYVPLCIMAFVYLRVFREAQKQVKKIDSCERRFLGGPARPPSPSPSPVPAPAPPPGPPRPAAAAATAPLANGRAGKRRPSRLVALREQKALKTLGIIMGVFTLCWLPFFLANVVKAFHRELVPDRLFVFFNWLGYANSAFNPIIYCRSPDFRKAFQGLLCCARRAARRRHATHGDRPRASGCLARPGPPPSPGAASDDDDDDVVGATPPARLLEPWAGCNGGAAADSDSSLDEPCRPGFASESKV

[3] = molecular target: Sodium-dependent dopamine transporter (Homo sapiens, UniProt Q01959)
Sodium-dependent dopamine transporter, sequence (Q01959 whole entry): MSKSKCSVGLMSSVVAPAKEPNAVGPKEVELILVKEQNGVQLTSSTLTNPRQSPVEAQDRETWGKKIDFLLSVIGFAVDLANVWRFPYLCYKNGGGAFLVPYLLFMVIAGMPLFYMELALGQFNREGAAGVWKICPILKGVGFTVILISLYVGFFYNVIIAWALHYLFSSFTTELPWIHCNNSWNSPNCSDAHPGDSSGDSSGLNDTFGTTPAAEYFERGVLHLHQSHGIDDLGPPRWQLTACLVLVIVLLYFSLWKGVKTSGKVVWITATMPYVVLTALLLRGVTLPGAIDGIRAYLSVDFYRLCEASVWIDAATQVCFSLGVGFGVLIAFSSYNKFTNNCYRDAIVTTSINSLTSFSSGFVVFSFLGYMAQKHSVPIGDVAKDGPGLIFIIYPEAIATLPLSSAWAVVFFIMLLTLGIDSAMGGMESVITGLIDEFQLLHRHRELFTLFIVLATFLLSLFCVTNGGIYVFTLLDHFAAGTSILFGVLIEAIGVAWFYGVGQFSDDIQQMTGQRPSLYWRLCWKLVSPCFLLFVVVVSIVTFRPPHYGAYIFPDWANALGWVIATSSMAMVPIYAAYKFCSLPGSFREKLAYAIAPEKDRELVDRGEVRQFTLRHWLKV

[4] = molecular target: T2, 5-hydroxytryptamine receptor 2C (Homo sapiens, UniProt P28335)
T2 sequence (P28335 whole entry): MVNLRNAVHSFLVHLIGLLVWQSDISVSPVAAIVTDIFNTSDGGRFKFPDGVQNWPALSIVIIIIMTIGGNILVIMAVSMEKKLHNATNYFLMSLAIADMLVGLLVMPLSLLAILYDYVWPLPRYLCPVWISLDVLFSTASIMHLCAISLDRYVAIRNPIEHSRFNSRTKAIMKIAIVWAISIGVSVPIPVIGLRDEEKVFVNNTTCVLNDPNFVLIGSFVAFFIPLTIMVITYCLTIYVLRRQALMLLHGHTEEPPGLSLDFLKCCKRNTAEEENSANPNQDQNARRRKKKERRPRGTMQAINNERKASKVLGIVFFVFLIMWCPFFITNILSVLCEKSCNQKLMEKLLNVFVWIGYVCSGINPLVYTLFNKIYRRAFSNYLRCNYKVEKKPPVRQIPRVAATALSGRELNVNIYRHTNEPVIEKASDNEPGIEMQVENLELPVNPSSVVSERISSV

[5] = molecular target: T3, Alpha-1A adrenergic receptor (Homo sapiens, UniProt P35348); format: functional, cell-based
T3 sequence (P35348 whole entry): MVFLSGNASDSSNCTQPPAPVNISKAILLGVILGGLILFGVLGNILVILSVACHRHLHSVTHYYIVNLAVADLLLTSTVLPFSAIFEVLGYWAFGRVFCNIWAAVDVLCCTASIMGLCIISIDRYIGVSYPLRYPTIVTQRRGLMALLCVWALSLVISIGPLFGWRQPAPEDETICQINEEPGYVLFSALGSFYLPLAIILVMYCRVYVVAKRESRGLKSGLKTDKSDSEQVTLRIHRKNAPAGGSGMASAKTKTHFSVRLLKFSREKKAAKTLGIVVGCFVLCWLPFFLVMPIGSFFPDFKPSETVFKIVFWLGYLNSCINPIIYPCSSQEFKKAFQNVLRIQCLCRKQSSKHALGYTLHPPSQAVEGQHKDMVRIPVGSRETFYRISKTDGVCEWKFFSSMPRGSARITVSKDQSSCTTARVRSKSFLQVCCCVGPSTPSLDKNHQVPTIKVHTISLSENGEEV

[6] = molecular target: T4, 5-hydroxytryptamine receptor 1A (Homo sapiens, UniProt P08908); format: functional, cell-based
T4 sequence (P08908 whole entry): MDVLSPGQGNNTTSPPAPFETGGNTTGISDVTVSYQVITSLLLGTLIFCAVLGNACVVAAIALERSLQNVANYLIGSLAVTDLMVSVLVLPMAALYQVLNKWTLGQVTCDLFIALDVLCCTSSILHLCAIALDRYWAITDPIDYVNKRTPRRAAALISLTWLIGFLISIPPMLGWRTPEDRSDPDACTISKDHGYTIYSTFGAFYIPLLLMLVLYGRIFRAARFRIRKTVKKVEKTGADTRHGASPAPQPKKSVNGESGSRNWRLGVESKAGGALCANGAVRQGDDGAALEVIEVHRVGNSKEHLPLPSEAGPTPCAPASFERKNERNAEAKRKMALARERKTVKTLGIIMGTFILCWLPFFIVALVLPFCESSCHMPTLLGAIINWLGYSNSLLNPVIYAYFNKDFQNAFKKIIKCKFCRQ

Vasopressin V2 receptor = Vasopressin V2 receptor (Homo sapiens, UniProt P30518)
Vasopressin V2 receptor, sequence (P30518 whole entry): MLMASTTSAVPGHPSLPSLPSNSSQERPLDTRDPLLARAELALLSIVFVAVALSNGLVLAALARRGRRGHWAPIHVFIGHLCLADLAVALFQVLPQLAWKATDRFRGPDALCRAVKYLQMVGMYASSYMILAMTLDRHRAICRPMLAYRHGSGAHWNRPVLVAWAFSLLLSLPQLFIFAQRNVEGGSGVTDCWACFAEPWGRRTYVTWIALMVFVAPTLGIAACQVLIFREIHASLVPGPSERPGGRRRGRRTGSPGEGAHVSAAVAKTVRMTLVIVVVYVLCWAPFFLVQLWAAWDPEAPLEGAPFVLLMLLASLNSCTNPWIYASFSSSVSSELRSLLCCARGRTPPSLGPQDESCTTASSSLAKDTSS

Estrogen receptor = molecular target: T5, Estrogen receptor (Homo sapiens, UniProt P03372)
T5 sequence (P03372 whole entry): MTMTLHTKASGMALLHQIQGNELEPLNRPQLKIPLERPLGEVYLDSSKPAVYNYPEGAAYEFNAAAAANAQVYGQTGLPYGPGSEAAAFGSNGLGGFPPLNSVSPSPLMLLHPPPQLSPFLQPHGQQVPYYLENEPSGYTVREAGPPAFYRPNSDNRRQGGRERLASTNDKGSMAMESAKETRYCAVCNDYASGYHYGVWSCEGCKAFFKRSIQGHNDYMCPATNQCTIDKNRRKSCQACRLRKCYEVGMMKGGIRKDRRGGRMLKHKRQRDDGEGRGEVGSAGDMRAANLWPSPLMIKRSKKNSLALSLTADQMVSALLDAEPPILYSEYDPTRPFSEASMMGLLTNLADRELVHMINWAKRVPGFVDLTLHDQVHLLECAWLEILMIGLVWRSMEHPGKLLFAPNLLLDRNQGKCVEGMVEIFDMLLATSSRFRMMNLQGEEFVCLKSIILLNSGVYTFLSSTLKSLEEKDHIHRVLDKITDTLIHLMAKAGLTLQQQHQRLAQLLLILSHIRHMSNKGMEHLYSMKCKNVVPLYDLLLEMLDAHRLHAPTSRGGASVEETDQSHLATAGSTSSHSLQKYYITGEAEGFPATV
Also: assay procedure not described here.

In the case of `CC(O)(CS(=O)(=O)c1ccc(F)cc1)C(=O)Nc1ccc(C#N)c(C(F)(F)F)c1` (stereo not drawn) [BICALUTAMIDE], the AC50 [1] is reported as 13 µM, the AC50 (Motilin receptor) is reported as > 30 µM and the AC50 [2] is reported as > 30 µM. The AC50 [3] was > 30 µM, the AC50 [4] was > 30 µM and the AC50 [5] was > 3 µM. For the same compound, the AC50 [6] was > 10 µM and the AC50 (Vasopressin V2 receptor) was > 30 µM.

With `O=C(O)COCCN1CCN(C(c2ccccc2)c2ccc(Cl)cc2)CC1` (stereo not drawn) [CETIRIZINE] the AC50 [1] was > 10 µM, the AC50 (Estrogen receptor) was > 30 µM and the AC50 (Motilin receptor) was > 10 µM. The AC50 [2] was > 10 µM, the AC50 [4] was > 30 µM and the AC50 [5] was > 30 µM. The AC50 [6] was > 10 µM and the AC50 (Vasopressin V2 receptor) was > 30 µM.

In the case of `CC(=O)O[C@]1(C(C)=O)CC[C@H]2[C@@H]3C=C(Cl)C4=CC(=O)[C@@H]5C[C@@H]5[C@]4(C)[C@H]3CC[C@@]21C` [CYPROTERONE ACETATE], the AC50 [1] is reported as > 10 µM, the AC50 (Motilin receptor) is reported as > 10 µM and the AC50 [2] is reported as > 10 µM. For the same compound, the AC50 [3] was > 30 µM, the AC50 [4] was > 30 µM and the AC50 [5] was > 3 µM. For the same compound, the AC50 (Vasopressin V2 receptor) was > 30 µM.

`C[C@@H]1C[C@H]2[C@@H]3C[C@H](F)C4=CC(=O)C=C[C@]4(C)[C@@]3(F)[C@@H](O)C[C@]2(C)[C@@]1(OC(=O)c1ccco1)C(=O)SCF` [FLUTICASONE FUROATE] was tested, and the AC50 [1] was > 10 µM, the AC50 (Motilin receptor) was > 10 µM and the AC50 [2] was > 10 µM. The AC50 [3] was > 10 µM, the AC50 [4] was > 30 µM and the AC50 [5] was > 30 µM. The AC50 [6] was > 10 µM and the AC50 (Vasopressin V2 receptor) was > 10 µM.

In the case of `CC[N+](C)(CC)CCOC(=O)C(O)(c1ccccc1)C1CCCCC1` (stereo not drawn) [OXYPHENONIUM], the AC50 [5] is reported as > 30 µM.

In the case of `C[C@@H]1C[C@H]2[C@@H]3C[C@H](F)C4=CC(=O)C=C[C@]4(C)[C@H]3[C@@H](O)C[C@]2(C)[C@@]1(O)C(=O)CO` [PARAMETHASONE], the AC50 [5] is reported as > 30 µM.

In the case of `CCC[C@H](N[C@@H](C)C(=O)N1[C@H](C(=O)O)C[C@@H]2CCCC[C@@H]21)C(=O)OCC` [PERINDOPRIL], the AC50 [5] is reported as > 30 µM.

In the case of `NNCCc1ccccc1` [PHENELZINE], the AC50 [5] is reported as > 1 µM.

`N[C@@H](Cc1ccccc1)C(=O)O` [PHENYLALANINE] was tested, and the AC50 [5] was > 30 µM.

`CCCn1cnc2c1c(=O)n(CCCCC(C)=O)c(=O)n2C` [PROPENTOFYLLINE] was tested, and the AC50 [5] was > 30 µM.

In the case of `COC(=O)[C@H]1[C@H]2C[C@@H]3c4[nH]c5cc(OC)ccc5c4CCN3C[C@H]2C[C@@H](OC(=O)c2cc(OC)c(OC)c(OC)c2)[C@@H]1OC` [RESERPINE], the AC50 [1] is reported as > 30 µM, the AC50 (Motilin receptor) is reported as > 10 µM and the AC50 [2] is reported as > 10 µM. For the same compound, the AC50 [3] was 13 µM, the AC50 [4] was > 30 µM and the AC50 [5] was > 30 µM. The AC50 [6] was > 10 µM and the AC50 (Vasopressin V2 receptor) was > 10 µM.

`COc1cc(C)c2c(Oc3cccc(C(F)(F)F)c3)c(OC)cc(NC(C)CCCN)c2n1` (stereo not drawn) [TAFENOQUINE] was tested, and the AC50 [5] was > 3 µM.

For `CCCSc1nc(N[C@@H]2C[C@H]2c2ccc(F)c(F)c2)c2nnn([C@@H]3C[C@H](OCCO)[C@@H](O)[C@H]3O)c2n1` [TICAGRELOR], the AC50 [5] was > 10 µM.

With `Cc1ccc(C(=O)C(C)CN2CCCCC2)cc1` (stereo not drawn) [TOLPERISONE] the AC50 [5] was > 30 µM.
